# Patent publication US20160220602A1, “USE OF CHINESE MEDICINE PREPARATION IN PREPARING DRUG FOR PREVENTING AND/OR TREATING CROHN'S DISEASE” (TASLY PHARMACEUTICAL GROUP CO., LTD., priority 2013, published 2016)
# Test system: TNBS-induced SD rat Crohn's disease model
# Test: DAI score in TNBS-caused Crohn's disease rat model
# Type: in vivo, SD rats
# Conditions: TNBS model rats, 100 mg/kg
# Method: Grouping: experiment was carried out by using two ways of intracolonic and intragastric administrations. […] There were 10 rats each group. Method for establishing rat model: referring to Morris method, TNBS was used to induce the SD rat Crohn's disease model (abbreviated as “TNBS model”). 24 hours before modeling, the SD rats were fasted but water was given. […] The rats of blank control group were normally fed with free access to water and the same volume of normal saline was given in the same administration routes by referring to the dosage regime of aforementioned treatment groups. The rats of model group were administrated with the same volume of normal saline in the same administration routes. […] (1) General Indices: weight change and stool (e.g. fecal occult blood, bloody stool and diarrhea) was observed every day to calculate DAI (disease activity index) score. DAI score=(weight loss percentage+stool character fraction+hematochezia fraction)/3 [table]
smiles,measurement,setting,value
"Nc1ccc(O)c(C(=O)O)c1 [mesalamine, Mesalamine]",DAI score (Mean ± SD),"intracolonic, 0th day (1 day before model established)",0.000 ± 0.000
same,DAI score (Mean ± SD),"intracolonic, 2nd day",1.867 ± 0.571
same,DAI score (Mean ± SD),"intracolonic, 3rd day",2.100 ± 0.754
same,DAI score (Mean ± SD),"intracolonic, 4th day",2.067 ± 0.7217
same,DAI score (Mean ± SD),"intracolonic, 5th day",1.733 ± 0.562
same,DAI score (Mean ± SD),"intracolonic, 6th day",1.367 ± 0.532
same,DAI score (Mean ± SD),"intracolonic, 7th day",1.267 ± 0.467
same,DAI score (Mean ± SD),"intracolonic, 8th day",1.167 ± 0.360
same,DAI score (Mean ± SD),"intracolonic, 9th day",1.067 ± 0.306
same,DAI score (Mean ± SD),"intracolonic, 10th day",1.000 ± 0.314
same,DAI score (Mean ± SD),"intracolonic, 11th day",0.933 ± 0.211
same,DAI score (Mean ± SD),"intracolonic, 12th day",0.833 ± 0.236
same,DAI score (Mean ± SD),"intracolonic, 13th day",0.833 ± 0.236
same,DAI score (Mean ± SD),"intracolonic, 14th day",0.767 ± 0.353
same,DAI score (Mean ± SD),"intracolonic, 15th day",0.733 ± 0.344
same,DAI score (Mean ± SD),"intragastric, 0th day (1 day before model established)",0.000 ± 0.000
same,DAI score (Mean ± SD),"intragastric, 2nd day",1.519 ± 0.412
same,DAI score (Mean ± SD),"intragastric, 3rd day",1.481 ± 0.380
same,DAI score (Mean ± SD),"intragastric, 4th day",1.333 ± 0.333
same,DAI score (Mean ± SD),"intragastric, 5th day",1.111 ± 0.333
same,DAI score (Mean ± SD),"intragastric, 6th day",1.037 ± 0.261
same,DAI score (Mean ± SD),"intragastric, 7th day",1.000 ± 0.236
same,DAI score (Mean ± SD),"intragastric, 8th day",0.963 ± 0.309
same,DAI score (Mean ± SD),"intragastric, 9th day",0.889 ± 0.289
same,DAI score (Mean ± SD),"intragastric, 10th day",0.741 ± 0.324
same,DAI score (Mean ± SD),"intragastric, 15th day",0.481 ± 0.242
same,DAI score (Mean ± SD),"intragastric, 16th day",0.481 ± 0.242
same,DAI score (Mean ± SD),"intragastric, 18th day",0.333 ± 0.236
same,DAI score (Mean ± SD),"intragastric, 19th day",0.259 ± 0.147
same,DAI score (Mean ± SD),"intragastric, 20th day",0.222 ± 0.167
